Laboratory results reported in patent US20240382629A1, “HETEROBIVALENT AND HOMOBIVALENT AGENTS TARGETING FIBROBLAST ACTIVATION PROTEIN ALPHA AND/OR PROSTATE-SPECIFIC MEMBRANE ANTIGEN” (The Johns Hopkins University, priority 2021, published 2024).

Columns and labels:
U87 tumor = assay: PET imaging and tissue biodistribution in U87 tumor-bearing mice; type: in vivo, mouse
Protocol: (§1) Cell uptake assays, flow cytometry, and IHC were performed as described previously. Banerjee et al., 2019; Nimmagadda et al., 2018. PET imaging and biodistribution Sequential PET imaging and biodistribution studies were conducted to quantify and validate PET imaging data. Briefly, tumor-bearing mice were administrated approximately 7.4 MBq of radiotracer in 150 μL saline via tail-vein injection. They were randomized into the indicated groups of 3-4 mice before radiotracer injection.
In Experiment 1, bilateral xenografts of U87 (right flank) and PSMA+ PC3 PIP (left flank) tumors were established in male NSG mice (n=3), which underwent imaging followed by biodistribution over 24 h. […] A biodistribution study was further conducted with U87 tumors at 2 h post-injection (n=3) to compare the tissue distribution properties of ^64Cu-FP-L1 and ^64Cu-FAPI-04.

[1] = Stability of radiotracer in PBS and bovine serum albumin; type: physicochemical; conditions: in PBS and bovine serum albumin at 37° C.
Protocol: Click chemistry was used to conjugate the FAP and PSMA targeting moieties with the selected linker. Radiolabeling employed a rapid microwave-assisted method to generate ^64Cu-FP-L1 in nearly quantitative yield. High-performance liquid chromatography (HPLC) was used to remove unreacted ligand to ensure high specific radioactivity (>19 MBq/nmol). ^64Cu-FP-L1 was stable for at least 4 h in PBS and bovine serum albumin at 37° C.

PSMA+ PC3 PIP tumor = assay: PET imaging and biodistribution in PSMA+ PC3 PIP tumor-bearing mice; type: in vivo, mouse
Protocol: as §1, with “Banerjee et al., 2019; Nimmagadda et al., 2018.” left out

PSMA+ 786-O tumor = assay: PET imaging and biodistribution in PSMA+ 786-O ccRCC tumor-bearing mice; type: in vivo, mouse; conditions: 2 h
Protocol: Experiment 4 consisted of preliminary imaging (7.4 MBq) (n=2) and biodistribution studies (0.74 MBq) at 2 h in male NSG healthy mice (n=3) and tumor-bearing human clear cell renal cell carcinoma (ccRCC) PSMA+786-O tumors (n=4).

[2] = 4 h, NSG mice, U87 tumor, in %ID/g
[3] = 24 h, NSG mice, U87 tumor, in %ID/g
[4] = U87 in NSG mice, 20 μCi, n=3, G2/G3 and FAPI-04, in %ID/g
[5] = male NSG mice bearing U87 xenografts, 2 h, n=3-4
[6] = blocking with ZJ43 (500 nmol/kg)

## N#C[C@@H]1CCCN1C(=O)CNC(=O)c1ccnc2ccc(OCCCNC(=O)CCc3cn(CCOCCOCCOCCC(=O)N[C@@H](CCCCNC(=O)CN4CCN(CC(=O)O)CCN(CC(=O)O)CC4)C(=O)NCCCCC(=O)N(CCCC[C@H](NC(=O)N[C@@H](CCC(=O)O)C(=O)O)C(=O)O)Cc4ccc(Br)cc4)nn3)cc12 [^64Cu-FP-L1, metal not drawn]
U87 tumor; [2]
  Biodistribution: Lac.gl: 3.72 ± 0.72
  Biodistribution: Liver: 5.52 ± 0.39
  Biodistribution: Lung: 3.31 ± 0.26
  Biodistribution: Muscle: 1.08 ± 0.10
  Biodistribution: Pancreas: 3.19 ± 0.11
  Biodistribution: Sal.gl: 4.80 ± 0.82
  Biodistribution: Sm.in: 4.26 ± 0.33
  Biodistribution: Spleen: 2.05 ± 0.13
  Biodistribution: Stomach: 2.02 ± 0.30
  Biodistribution: Tumor: 13.81 ± 1.78
U87 tumor; 4 h, bilateral U87 / PSMA+ PC3 PIP model
  Tumor uptake, FAP+ U87 tumor: 19.05±5.89 % ID/g
U87 tumor; [3]
  Biodistribution: Bladder: 0.57 ± 0.13
  Biodistribution: Blood: 0.91 ± 0.23
  Biodistribution: Bone: 0.48 ± 0.08
  Biodistribution: Fat: 0.23 ± 0.10
  Biodistribution: Heart: 1.19 ± 0.34
  Biodistribution: Kidney: 2.45 ± 0.32
  Biodistribution: Lac.gl: 0.87 ± 0.14
  Biodistribution: Liver: 4.21 ± 1.00
  Biodistribution: Lung: 2.07 ± 0.40
  Biodistribution: Muscle: 0.23 ± 0.04
  Biodistribution: Pancreas: 0.72 ± 0.15
  Biodistribution: Sal.gl: 0.92 ± 0.14
  Biodistribution: Sm.in: 2.16 ± 0.29
  Biodistribution: Spleen: 1.67 ± 0.32
  Biodistribution: Stomach: 1.27 ± 0.14
  Biodistribution: Tumor: 3.25 ± 0.05
U87 tumor; 24 h, bilateral U87 / PSMA+ PC3 PIP model
  Tumor uptake, FAP+ U87 tumor: 4.31±0.75 % ID/g
U87 tumor; [4]
  Biodistribution: Bladder: 6.81 ± 3.65
  Biodistribution: Blood: 2.29 ± 0.17
  Biodistribution: Bone: 3.32 ± 0.74
  Biodistribution: Fat: 1.03 ± 0.39
  Biodistribution: Heart: 1.58 ± 0.17
  Biodistribution: Kidney: 9.05 ± 0.88
  Biodistribution: Lacrimal: 3.32 ± 0.36
  Biodistribution: Liver: 4.27 ± 0.53
  Biodistribution: Lung: 2.71 ± 0.40
  Biodistribution: Muscle: 1.52 ± 0.20
  Biodistribution: Pancreas: 1.02 ± 0.72
  Biodistribution: Salivary: 4.64 ± 0.26
  Biodistribution: Sm. Intest.: 3.01 ± 0.08
  Biodistribution: Spleen: 1.83 ± 0.14
  Biodistribution: Stomach: 2.17 ± 0.12
  Biodistribution: U87: 7.79 ± 1.12
U87 tumor; bilateral U87 / PSMA+ PC3 PIP model
  Bone uptake: > 1 % ID/g
U87 tumor; [5]
  Biodistribution: Bladder: 6.16 ± 4.37 % ID/g
  Biodistribution: Blood: 1.87 ± 0.24 % ID/g
  Biodistribution: Bone: 2.02 ± 0.79 % ID/g
  Biodistribution: Fat: 0.35 ± 0.20 % ID/g
  Biodistribution: Heart: 1.36 ± 0.28 % ID/g
  Biodistribution: Kidney: 7.26 ± 2.83 % ID/g
  Biodistribution: Lacrimal glands: 4.74 ± 1.57 % ID/g
  Biodistribution: Liver: 4.05 ± 0.53 % ID/g
  Biodistribution: Lung: 2.80 ± 0.68 % ID/g
  Biodistribution: Muscle: 1.11 ± 0.23 % ID/g
  Biodistribution: Pancreas: 0.99 ± 0.18 % ID/g
  Biodistribution: Salivary Glands: 3.10 ± 0.51 % ID/g
  Biodistribution: Sm. Intestine: 2.32 ± 0.79 % ID/g
  Biodistribution: Spleen: 1.39 ± 0.10 % ID/g
  Biodistribution: Stomach: 1.89 ± 0.10 % ID/g
  Biodistribution: U87: 10.83 ± 1.02 % ID/g
[1]
  Stability (stable for at least): at least 4 h
PSMA+ PC3 PIP tumor; 2 h
  Uptake in PSMA+ PC3 PIP tumor: 12.06±0.78 % ID/g
PSMA+ PC3 PIP tumor; 2 h, blocking with FAPI-04 (500 nmol/kg)
  Uptake in PSMA+ PC3 PIP tumors with FAP blockade: 18.56±2.02 % ID/g
PSMA+ PC3 PIP tumor; 4 h
  Uptake in PSMA+ PC3 PIP tumor: 18.89±3.95 % ID/g
PSMA+ PC3 PIP tumor; 24 h
  Uptake in PSMA+ PC3 PIP tumor: 10.51±1.82 % ID/g
PSMA+ PC3 PIP tumor; ZJ43 (500 nmol/kg)
  Fold lower kidney uptake with ZJ43 vs unblocked: > 2 fold
PSMA+ PC3 PIP tumor; [6]
  Kidney uptake with PSMA blockade: 2.97±0.23 % ID/g
  Uptake in PSMA+ PIP tumor with PSMA blockade: 7.48±0.5 % ID/g
PSMA+ PC3 PIP tumor; from 1 to 24 h post-injection
  Tumor uptake and retention in PSMA+PC3 PIP tumor: > 10 % injected dose per gram of tissue
PSMA+ PC3 PIP tumor; unblocked
  Kidney uptake, unblocked agent: 8.03±0.89 % ID/g
PSMA+ 786-O tumor
  Tumor uptake, PSMA+ 786-O: 11.97±1.63 % ID/g
PSMA+ 786-O tumor; head-to-head biodistribution
  Renal uptake in PSMA+ 786-O xenograft-bearing NSG mice vs healthy NSG mice: high renal uptake compared to healthy mice
